This is an account of results in patent US12257251B2, “Use of FAK inhibitor in preparation of drug for treating tumors having NRAS mutation” (INXMED (NANJING) CO., LTD., priority 2019, dated 2025).

Data set [1] in a line: Body weight change (tolerability) in the KYSE-270 xenograft study. It counts as in vivo, mouse. The following applies: for Change in median weight: BI853520 50 mg/Kg qd, day 13 versus day 1. The protocol:
1.7. Monitoring tumor growth and side effects: Tumor diameters were measured with calipers three times a week. The volume [mm^3] of each tumor was calculated according to the equation “tumor volume=length×diameter^2×π/6”. To monitor the side effects of the treatment, the mice were checked daily for abnormalities and their body weights were measured three times a week. For ethical reasons, animals with tumors larger than 1.5 cm in diameter, ulcerated tumors, or 20% body weight loss were euthanized.
The wilcoxon test was used for comparison. For body weight, the percent change relative to initial body weight on day 1 was used as the target variable for statistical analysis. The number of animals, and the median, minimum and maximum weight changes in each group were calculated.
One-sided test to compare all treatment groups with control group was performed for observing: • reduction in tumor volume (inhibition of tumor growth, efficacy parameter) and • reduction in weight changes (weight loss, tolerance parameters).
Within each subtopic, p-values for the efficacy parameter were compared and adjusted for multiple times according to Bonferroni-Holm. The p-value for the tolerance parameter was kept constant so as not to overlook possible side effects. Significance level was fixed at α=5%. A p-value (adjusted) of less than 0.05 was considered to show a statistically significant difference between groups, and 0.05≤p-value<0.10 was considered as an indicative difference. Statistical evaluations were performed using the SAS software package version 9.4 (SAS Institute Inc., Cary NC, USA).

In data set [2] the test system is GAK (NRAS^Q61L) melanoma cell line. Description: GAK CDX model (melanoma with an NRAS mutation): tumor growth. It counts as in vivo, mouse. The following applies: for Tumor growth compared to the control group (in words): GAK model, daily treatment; for Mean TGI: daily, based on relative tumor volume on day 14. As for the experimental part:
1.1. Test compound: BI853520, which was synthesized according to the method in the patent WO2010058032. BI853520 was formulated with 0.5% hydroxyethyl cellulose (Ashland).
1.2. Cells: The melanoma cell line GAK was purchased from JCRB Cell Bank, and HMVII cells were purchased from Sigma. GAK originated in the inguinal lymph nodes of patients with vaginal melanoma, whereas HMVII originated in primary vaginal melanoma. GAK and HMVII cells were cultured in tissue culture flasks containing 5% CO2 at 37° C. The media were Ham's F12 containing 10% heat-inactivated FBS and Ham's F10 containing 15% FBS, respectively. All media were supplemented with 100 U/mL penicillin, […] streptomycin, and 2 mM GlutaMAX. All cell culture reagents were purchased from GIBCO.
Both HMVII and GAK cell lines carried an NRAS mutation at the Q61 position. HMVII (NRAS^Q61K) and GAK (NRAS^Q61L)
1.3. Mice: 4-week-old female balb/c nude mice (purchased from Beijing Vital River Laboratory Animal Technology Co., Ltd.). After arriving in the animal room, the mice were allowed to acclimate to the new environment for at least 2 weeks before being used for assay. The animals were housed under standard conditions (temperature: 21.5±1.5° C., humidity: 55±10%). A Standard diet and autoclaved tap water were provided ad libitum. All animal care and experimental procedures were performed in accordance with the animal care ethics guidelines approved by the Medical Ethics Committee of Beijing Cancer Hospital and Research Institute.
To establish subcutaneous tumors, HMVII and GAK cells were harvested by trypsinization, centrifuged, washed and resuspended in ice-cold PBS+5% FCS. Then 100 l of the cell suspension containing 5×10^6 cells was injected subcutaneously into the right flank of nude mice (1 site per mouse). When tumors were well established and reached a median volume of approximately 400-600 mm^3, mice were randomly assigned to the treatment group and the control group.
1.5. Administration: BI 853520 was formulated in 0.5% hydroxyethyl cellulose, which was intragastrically administered through gavage needle every day, and the dosage was 10 mL/Kg body weight.
Tumor diameters were measured twice a week with calipers. The volume [mm^3] of each tumor was calculated according to the equation “tumor volume=length×diameter^2×π/6”. Animals were sacrificed at the end of the study (approximately two weeks after the start of treatment). During the study, animals with necrotic tumors or tumors exceeding 2000 mm^3 in size were sacrificed for ethical reasons.
Tumor volumes were statistically assessed at the end of the assay. For tumor volume, relative values were used.
The number of observations, and the median, minimum and maximum tumor volumes were calculated. For a quick overview of possible treatment effects, the following metrics were calculated: • Relative tumor volume: (T/C)
[formula] • TGI from day 1 to day d: TGI=100×[(Cd−C1)−(Td−T1)]/(Cd−C1) • wherein, C1, T1=mean relative tumor volume in control and treatment groups at the start of the assay (day 1); • Cd, Td=mean relative tumor volume in control and treatment groups at the end of the assay (day d).
Statistical evaluation was performed using the Student's t-test function in Microsoft Excel, using two-tailed distribution and two-sample equal variance type.
The significance level was fixed at α=5%. […]

Data set [3] deals with 37 different tumors (human tumor CDX). Particulars: across CDX models of 37 different tumors; cited from earlier work.

Each structure is given as a SMILES string.

Take `COc1cc(C(=O)NC2CCN(C)CC2)c(F)cc1Nc1ncc(C(F)(F)F)c(Oc2cccc3c2C(=O)N(C)C3)n1` [BI853520]: the “Change in median weight” value is recorded as “+2.8%” in data set [1] (50 mg/kg) and 2.8% in data set [1] (listed as BI 853520, 50 mg/kg). Also, the “Tolerability (in words)” value in data set [1] (BI 853520 50 mg/kg) was “well tolerated”. For the same compound, the “Tumor growth compared to the control group (in words)” value in data set [2] was “inhibit tumor growth”; in data set [2] (listed as BI 853520), “delayed tumor growth”. For the same compound, the Mean tumor volume in data set [2] (GAK, 50 mg/kg (1st week), 25 mg/kg (2nd week), daily gavage, day 14) was determined as 548 ± 144 mm^3. Further, the “Mean TGI” value in data set [2] (GAK, 50 mg/kg (1st week), 25 mg/kg (2nd week)) is recorded as 80%; in data set [2] (GAK, 50 mg/kg (1st week), 25 mg/kg (2nd week), listed as BI 853520) it was 80%. Also, the “TGI (tumor growth inhibition) span” value in data set [3] was 0 to 107%.
